Reference: patent US20260226041A1 (ARIGENX THERAPEUTICS CO., LTD., priority 2023, published 2026)

Tests used:
[1] = target: T1, human AHR (Homo sapiens, UniProt P35869); experiment: Human AHR agonist luciferase assay (CYP1A1 promoter Nano-luc reporter in HepG2 cells);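 note: stably transfected HepG2 clone, DRE-containing 1200 bp promoter region driving Nano-luc, treated 4 to 24 h with 11-point dilutions in tryptophan-free medium, medium-only wells as baseline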
T1 sequence (P35869 11-848): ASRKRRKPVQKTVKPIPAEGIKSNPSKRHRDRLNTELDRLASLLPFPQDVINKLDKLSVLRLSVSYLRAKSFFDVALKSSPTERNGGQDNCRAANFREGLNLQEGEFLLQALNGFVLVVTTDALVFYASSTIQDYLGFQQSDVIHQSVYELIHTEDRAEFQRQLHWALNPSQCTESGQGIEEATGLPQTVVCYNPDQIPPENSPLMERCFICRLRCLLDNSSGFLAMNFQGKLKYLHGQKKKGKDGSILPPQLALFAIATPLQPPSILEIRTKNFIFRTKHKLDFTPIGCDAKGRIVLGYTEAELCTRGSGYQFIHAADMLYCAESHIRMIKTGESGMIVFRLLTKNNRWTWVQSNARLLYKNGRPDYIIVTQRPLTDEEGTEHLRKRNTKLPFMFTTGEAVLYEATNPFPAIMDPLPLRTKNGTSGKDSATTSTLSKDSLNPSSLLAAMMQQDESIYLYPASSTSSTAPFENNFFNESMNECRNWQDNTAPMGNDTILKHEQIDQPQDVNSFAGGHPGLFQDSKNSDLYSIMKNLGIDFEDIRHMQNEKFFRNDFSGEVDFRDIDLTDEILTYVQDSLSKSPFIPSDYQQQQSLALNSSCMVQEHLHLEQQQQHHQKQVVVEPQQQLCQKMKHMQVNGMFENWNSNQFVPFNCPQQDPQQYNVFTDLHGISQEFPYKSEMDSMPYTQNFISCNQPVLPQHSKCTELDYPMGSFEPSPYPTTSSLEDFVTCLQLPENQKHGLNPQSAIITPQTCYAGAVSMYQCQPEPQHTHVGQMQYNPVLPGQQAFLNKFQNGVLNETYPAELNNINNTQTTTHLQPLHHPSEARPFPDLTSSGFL
Procedure: To detect AHR activation, a reporter gene plasmid was constructed by placing the gene sequence from −1200 bp to 0 bp upstream of CYP1A1 in front of a Nano-luc luciferase reporter gene according to conventional construction methods of reporter gene plasmids in the art. The reporter gene plasmid was transfected into human hepatoma HepG2 cells by a conventional liposome transfection method in the art, and stably expressing cells were selected by puromycin. The selected cells were diluted to a concentration of 5 cells/mL and seeded into a 96-well plate at 100 μL/well, and single clones were obtained after growth. A single clone with normal morphology, normal growth, and the highest induction signal was selected for the human AHR agonist luciferase assay.
On day one, the HepG2 monoclonal cell line stably expressing reporter gene was counted and seeded into a white opaque 96-well plate at a density of 1×10^4 cells per well −8×10^4 cells per well using 100 μL of complete medium without tryptophan and phenol red (minimal essential medium (MEM) without tryptophan and phenol red, 10% (v/v) fetal bovine serum, 1× non-essential amino acids, 1× sodium pyruvate, and 1× GlutaMax). The cells were cultured in an incubator maintained at 37° C. with 5% (v/v) CO2 for 24 hours.
Test compounds were prepared as 10 mmol/L stock solutions in dimethyl sulfoxide (DMSO) and stored at 4° C. protected from light. Before treatment, the compound stock solutions, positive control compounds (e.g., dioxin, 2-(1H-indole-3-carbonyl)thiazole-4-carboxylic acid methyl ester (ITE), or kynurenine), and a negative control compound (DMSO) were subjected to preliminary dilution (determined based on pre-experiments) with the complete medium without tryptophan and phenol red, followed by 3- to 20-fold serial dilutions to 11 concentration points to obtain 2× dilution solutions. When treating the cells, 50 μL of medium was first aspirated from the 96-well plate containing the seeded cells, and then 50 μL of the serially diluted 2× dilution solution was added. Each compound was tested in duplicate, and each duplicate experiment included a well with a concentration of 0 (i.e., containing only the medium) to determine the baseline. The reporter cells were returned to the incubator and incubated for 4 to 24 hours after treatment.
After treatment, 100 μL/well of Nano-Glo Luciferase Assay Reagent was added to the 96-well plate, and the relative light unit (RLU) of each well was measured. The RLU values for the wells with the concentration of 0 on the 96-well plates were averaged to calculate the baseline Ave RLU^Vehicle. The activity of AHR induced by the test compounds at different concentrations was calculated according to Formula (1) based on the ratio of RLU^Test Cmpd from the experimental groups to the baseline Ave RLU^Vehicle, to determine the activation fold.
The activation fold and the corresponding compound concentration were fitted using GraphPad Prism 9 with [Agonist] vs. response—variable slope (four parameters) to calculate the EC50 of the compound for AHR activation.

[2] = target: T2, rat AHR (Rattus norvegicus, UniProt P41738); experiment: Rat AHR agonist luciferase assay (6x XRE Nano-luc reporter in H-4-II-E cells); assay type: cell-based; details: AHR activation, rat hepatoma H-4-II-E reporter cells, incubated 4 to 24 hours; read-out: H4IIE EC50
T2 construct: The reporter gene was introduced into a genome of rat hepatoma H-4-II-E cells via lentiviral infection; endogenous in cells; host or cells: H-4-II-E (rat hepatoma) with a lentivirally integrated 6x XRE Nano-luc reporter
T2 sequence (P41738 10-853): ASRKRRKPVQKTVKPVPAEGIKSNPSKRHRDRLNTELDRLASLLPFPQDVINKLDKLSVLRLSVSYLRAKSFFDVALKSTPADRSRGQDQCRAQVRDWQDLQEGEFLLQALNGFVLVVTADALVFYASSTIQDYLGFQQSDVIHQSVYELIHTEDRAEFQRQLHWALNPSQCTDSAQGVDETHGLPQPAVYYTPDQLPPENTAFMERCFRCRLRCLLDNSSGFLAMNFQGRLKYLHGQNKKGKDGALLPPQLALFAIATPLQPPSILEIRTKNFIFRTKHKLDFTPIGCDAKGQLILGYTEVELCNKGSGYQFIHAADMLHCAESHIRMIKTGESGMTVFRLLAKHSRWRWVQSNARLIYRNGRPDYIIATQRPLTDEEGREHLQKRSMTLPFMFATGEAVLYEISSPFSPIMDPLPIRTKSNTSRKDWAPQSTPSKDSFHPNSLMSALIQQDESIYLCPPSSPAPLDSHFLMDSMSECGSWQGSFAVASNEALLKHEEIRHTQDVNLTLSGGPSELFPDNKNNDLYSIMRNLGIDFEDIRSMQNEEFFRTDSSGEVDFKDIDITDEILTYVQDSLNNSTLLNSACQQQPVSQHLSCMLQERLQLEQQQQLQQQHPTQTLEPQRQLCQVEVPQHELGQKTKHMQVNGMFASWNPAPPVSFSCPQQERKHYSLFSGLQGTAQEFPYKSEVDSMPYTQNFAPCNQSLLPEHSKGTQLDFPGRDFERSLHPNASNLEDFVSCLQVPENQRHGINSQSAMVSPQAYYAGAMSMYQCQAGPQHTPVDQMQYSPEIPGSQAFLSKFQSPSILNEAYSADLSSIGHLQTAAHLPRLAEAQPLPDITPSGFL
Text: A lentivirus containing the reporter gene was generated by co-transfecting the transfer plasmid with packaging plasmids into 293T cells using conventional transfection methods in the art, followed by purification. The reporter gene was introduced into a genome of rat hepatoma H-4-II-E cells via lentiviral infection, and cells stably expressing the reporter gene were selected with puromycin for the rat AHR agonist luciferase assay.

[3] = target: mouse AHR (Mus musculus, UniProt P30561); experiment: Mouse AHR agonist luciferase assay (6x XRE Nano-luc reporter in Hepa1-6 cells);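 note: stable Hepa1-6 reporter line, 4–24 h exposure, 11-point serial dilution, Nano-Glo luminescence as fold over medium-only baseline, EC50 from four-parameter fit of activation fold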
Chain of mouse AHR (P30561 10-805 limits assumed): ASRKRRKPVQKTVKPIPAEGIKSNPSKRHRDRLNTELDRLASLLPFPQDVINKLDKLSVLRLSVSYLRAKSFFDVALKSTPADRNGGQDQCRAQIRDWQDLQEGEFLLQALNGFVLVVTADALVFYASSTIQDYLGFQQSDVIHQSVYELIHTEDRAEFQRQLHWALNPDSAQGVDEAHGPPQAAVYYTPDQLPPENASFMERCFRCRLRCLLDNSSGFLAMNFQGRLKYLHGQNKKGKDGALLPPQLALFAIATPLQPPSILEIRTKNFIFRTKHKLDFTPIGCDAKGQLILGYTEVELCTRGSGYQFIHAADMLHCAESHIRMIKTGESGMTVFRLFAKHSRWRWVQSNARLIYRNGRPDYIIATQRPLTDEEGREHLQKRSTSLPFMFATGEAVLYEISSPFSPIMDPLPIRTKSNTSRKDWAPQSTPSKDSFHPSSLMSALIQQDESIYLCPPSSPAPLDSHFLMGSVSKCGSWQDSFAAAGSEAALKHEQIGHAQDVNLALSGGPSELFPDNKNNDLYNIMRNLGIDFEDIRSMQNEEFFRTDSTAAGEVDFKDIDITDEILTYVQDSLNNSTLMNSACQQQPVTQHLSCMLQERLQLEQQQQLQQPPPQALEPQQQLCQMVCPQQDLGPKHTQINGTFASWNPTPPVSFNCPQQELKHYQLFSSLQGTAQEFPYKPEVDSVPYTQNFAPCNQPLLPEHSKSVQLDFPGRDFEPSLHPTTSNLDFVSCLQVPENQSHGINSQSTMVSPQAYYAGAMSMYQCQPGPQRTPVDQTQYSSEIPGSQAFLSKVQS
Chain of mouse AHR (P53762 whole entry partner): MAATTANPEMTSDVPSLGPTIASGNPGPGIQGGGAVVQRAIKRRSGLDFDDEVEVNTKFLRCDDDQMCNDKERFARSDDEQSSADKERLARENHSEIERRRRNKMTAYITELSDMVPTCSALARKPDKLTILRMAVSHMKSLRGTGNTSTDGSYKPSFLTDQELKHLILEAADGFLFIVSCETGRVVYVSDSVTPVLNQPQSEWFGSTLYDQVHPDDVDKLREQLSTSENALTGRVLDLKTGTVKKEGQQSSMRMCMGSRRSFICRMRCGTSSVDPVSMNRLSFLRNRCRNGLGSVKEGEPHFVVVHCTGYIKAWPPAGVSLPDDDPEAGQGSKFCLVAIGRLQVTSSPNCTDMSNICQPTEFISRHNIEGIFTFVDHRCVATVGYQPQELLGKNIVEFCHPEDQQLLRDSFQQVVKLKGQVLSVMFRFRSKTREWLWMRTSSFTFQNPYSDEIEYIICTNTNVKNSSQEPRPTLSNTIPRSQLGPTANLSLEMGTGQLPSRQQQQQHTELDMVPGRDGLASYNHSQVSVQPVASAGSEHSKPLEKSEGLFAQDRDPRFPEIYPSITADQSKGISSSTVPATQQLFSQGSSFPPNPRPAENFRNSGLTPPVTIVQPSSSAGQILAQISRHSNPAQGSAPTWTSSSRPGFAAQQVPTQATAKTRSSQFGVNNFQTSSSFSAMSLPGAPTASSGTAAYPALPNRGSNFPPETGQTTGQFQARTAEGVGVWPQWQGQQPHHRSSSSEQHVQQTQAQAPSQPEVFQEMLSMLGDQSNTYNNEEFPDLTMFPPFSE
Procedure: The reporter gene plasmid was transfected into mouse hepatoma Hepa1-6 cells by a conventional liposome transfection method in the art, and stably expressing cells were selected by puromycin for the mouse AHR agonist luciferase assay.
On day one, the stably expressing reporter gene Hepa1-6 cell line was counted and seeded into a white opaque 96-well plate at a density of 1×10^4 cells per well −8×10^4 cells per well using 100 μL of phenol red-free Dulbecco's Modified Eagle Medium (DMEM) (DMEM without phenol red, 10% fetal bovine serum). The cells were cultured in an incubator maintained at 37° C. with 5% CO2 for 24 hours.
Test compounds were prepared as 10 mM stock solutions in DMSO and stored at 4° C. protected from light. Before treatment, the compound stock solutions, positive control compounds (e.g., dioxin, ITE, or kynurenine), and a negative control compound (DMSO) were subjected to preliminary dilution (determined based on pre-experiments) with complete medium without tryptophan and phenol red, followed by 3- to 20-fold serial dilutions to 11 concentration points to obtain 10× dilution solutions. When treating the cells, 10 μL of medium was first aspirated from the 96-well plate containing the seeded cells, and then 10 μL of the serially diluted 10× dilution solution was added. Each compound was tested in duplicate, and each duplicate experiment included a well with a concentration of 0 (i.e., containing only medium) to determine the baseline. The reporter cells were returned to the incubator and incubated for 4 to 24 hours after treatment.
After treatment, 100 μL/well of Nano-Glo Luciferase Assay Reagent was added to the 96-well plate, and the RLU of each well was measured. The RLU values for the wells with the concentration of 0 on the 96-well plates were averaged to calculate the baseline Ave RLU^Vehicle The activity of AHR induced by the test compounds at different concentrations was calculated according to Formula (1) based on the ratio of RLU^Test Cmpd from the experimental groups to the baseline Ave RLU^Vehicle, to determine the activation fold.
The activation fold and the corresponding compound concentration were fitted using GraphPad Prism 9 with [Agonist] vs. response—variable slope (four parameters) to determine the EC50 of the compound for AHR activation.

Structure (SMILES) | EC50 [1] [nM] | EC50 [2] [nM] | EC50 [3] [nM]
O=C(c1nc(C2CCOC2=O)cs1)c1c[nH]c2ccccc12 (single isomer, unassigned) [Compound 1-isomer-A] | < 500 | ≤ 10 | < 100
O=C(c1nc(C2(O)CCOC2=O)cs1)c1c[nH]c2cc(F)ccc12 (stereo not drawn) [Compound 2-2] | < 500 | ≤ 10 | < 100
COC(=O)c1csc(C(=O)c2c[nH]c3ccccc23)n1 [ITE, 2-(1H-indole-3-carbonyl)thiazole-4-carboxylic acid methyl ester, reference compound] | < 500 | 10 to 2000 | 100 to 2000
O=C(c1nc(C2CCOC2=O)cs1)c1c[nH]c2cc(F)ccc12 (stereo not drawn) [Compound 1-2] | < 500 | ≤ 10 | < 100
O=C(c1nc(C2(O)CCOC2=O)cs1)c1c[nH]c2ccccc12 (stereo not drawn) [Compound 2] | < 500 | ≤ 10 | < 100
COc1ccc2c(C(=O)c3nc(C4CCOC4=O)cs3)c[nH]c2c1 (stereo not drawn) [Compound 1-3] | < 500 | ≤ 10 | < 100
COc1ccc2[nH]cc(C(=O)c3nc(C4CCN(C)C4=O)cs3)c2c1 (stereo not drawn) [Compound 7-5] | < 500 | 2000 to 100000 | < 100
COc1ccc2[nH]cc(C(=O)c3nc(C4CCOC4=O)cs3)c2c1 (stereo not drawn) [Compound 1-5] | < 500 | ≤ 10 | < 100
